“Also recorded” adds a separate entry of the source. Bridges are numbered along the chain shown (N, C = ends). Where no end group is shown, it is not given here. [ ]: non-standard residue; d: D form. Lys(N3) = [N-]=[N+]=NCCCC[C@H](N)C(=O)O; Pra = C#CC[C@H](N)C(=O)O
What was measured:
[1] = system: K. pneumoniae cells, BAA 1705 and BAA 2146; assay: Whole-cell ELISA of anti-DNP recruitment to bacterial cell surfaces; assay type: cell-based, Klebsiella pneumoniae; conditions: AR-PCC plus anti-DNP; cy(LLFFF)-DNP 5 or 10 μM, cy(HNGPT)-DNP 50 and 100 μM
From the text: FIG. 12 is a plot of 450 nm absorbances obtained from a cell-based ELISA assay conducted on two strains of K. pneumoniae cells, BAA 1705 (black) and BAA 2146 (grey), that were either untreated or opsonized by EPIs (AR-PCCs) and/or antibodies. […] This establishes EPI-driven opsonization by cy(LLFFF)-DNP (SEQ ID NO:5). […] This indicates opsonization by cy(LLFFF)-DNP (SEQ ID NO:5) is specific and is driven by the ligand cy(LLFFF) (SEQ ID NO:5), rather than the Lys(DNP) moiety.
The protocol for detecting anti-DNP recruitment to bacterial cell surfaces is as follows. […] After washing, bacteria were incubated with HRP conjugated secondary antibody (Bio-Rad) at a dilution of 1:10,000 for 1 h at 37° C. Unbound antibody was washed off by using PBS-BSA and the cells were then developed by using TMB reagent. […] Anti-MrkA antibody was procured from Biorbyt (orb51318) and used at a concentration of 5 μg/mL, and K. pneumoniae antiserum was obtained from abcam (ab20947) and used at a concentration of 5 μg/mL.

[2] = system: K. pneumoniae cells (strain BAA 2146); assay: Flow cytometry of AR-PCC-driven opsonization by anti-DNP antibodies; assay type: cell-based, Klebsiella pneumoniae
[3] = system: K. pneumoniae cells (strain BAA 1705); assay: Gentamicin protection assay: phagocytosis and opsonophagocytic killing (OPK) by macrophages; assay type: cell-based, Klebsiella pneumoniae; conditions: macrophages harvested at 6 hrs
Experimental: FIGS. 7A and 7B show a gentamicin protection assay that evaluates EPI-driven phagocytosis and opsonophagocytic killing (OPK) of K. pneumoniae cells by murine bone-marrow-derived macrophages. FIG. 7A is a flow diagram depicting the assay used to evaluate EPI-driven opsonophagocytic killing (OPK) of K. pneumoniae cells. Briefly, K. pneumoniae cells (strain BAA 1705) opsonized by EPIs (AR-PCCs) and anti-DNP antibodies were incubated with macrophages for 1 or 24 h. Macrophages were lysed, and the lysate was plated to obtain bacterial colonies that were subsequently counted. FIG. 7B is a plot of colony counts for various samples subjected to the OPK assay. […] All EPIs (AR-PCCs) were used at a 5 μM concentration, measurements were conducted in triplicate, and error bars reflect standard deviations. cy(LLFFA) is SEQ ID NO:11.
It also tested whether DNP-conjugated EPIs could promote the opsonophagocytic killing (OPK) of K. pneumoniae by macrophages. This was tested by using an OPK assay. Briefly, K. pneumoniae cells were treated with EPI and then anti-DNP antibody before being exposed to macrophages for either 6 or 24 hours. During this incubation period, macrophages that recognize K. pneumoniae cells will phagocytose them, and phagocytosed bacteria will remain viable for up to 6 hours, but within 24 hours are rendered inviable by OPK. Thus, macrophages were isolated after 6 and 24 hours of incubation with K. pneumoniae, lysed them, and plated and grew the lysate, which yielded bacterial colonies that reflect the phagocytosis (at 6 hrs) or OPK (at 24 hrs) of bacteria.
Given that cy(LLFFF)-DNP (SEQ ID NO:5) recruits antibodies to K. pneumoniae surfaces, it was expected that K. pneumoniae opsonized in this manner would be more susceptible to phagocytosis by macrophages. AR-PCC-driven phagocytosis and OPK were quantified by a gentamicin protection assay, as depicted in FIG. 7A. For this assay, K. pneumoniae cells (strain BAA 1705) were treated with cy(LLFFF)-DNP (SEQ ID NO:5), opsonized by anti-DNP antibodies, and then incubated with murine bone-marrow-derived macrophages (BMDMs). BMDMs were subsequently exposed to a solution containing gentamicin, to which K. pneumoniae strain BAA 1705 is susceptible, to kill any extracellular bacteria. Phagocytosed bacteria remain viable inside BMDMs for at least 1 h, yet are rendered inviable after 24 h by OPK (FIG. 13). Macrophages harvested at 1 h and 24 h were lysed and plated to generate bacterial colonies, which were enumerated to quantify phagocytosis and OPK.
Opsonophagocytic killing (OPK) assays. Klebsiella pneumoniae BAA1705 was treated with DNP-PCCs followed by incubation with anti-DNP antibody, as described above in the “Cell-Based ELISAs” section. These opsonized bacteria were then used to infect BMDMs at a multiplicity of infection of 50 for 0.5 h at 37° C. Bacteria were then washed by using RPMI 1640 Media and BMDMs were left in cell culture medium containing gentamicin (100 μg/ml). After 1 h and 24 h BMDMs were washed to remove gentamicin and intracellular bacteria were harvested by lysing BMDMs in RPMI media containing 0.2% Triton X 100. Bacterial CFUs were enumerated by plating onto LB agar. Bacterial counts at 1 h indicated the degree of opsonization while those at 24 h served as a measure of microbicidal activity of macrophages. For these measurements, anti-MrkA antibody and K. pneumoniae antiserum were used at dilutions of 5 μg/mL each.

[4] = system: MrkA-expressing K. pneumoniae cells; assay: Whole-cell ELISA of biotinylated PCC binding; conditions: biotinylated PCC at 5 μM
[5] = Isocratic point of PCCs (C18 prep-scale column elution); assay type: physicochemical
From the text: The efficacy of AR-PCCs in vivo will not only depend on target binding, but also pharmacokinetic (PK) properties, of which clearance pathway is an important parameter. […] Modifications include single- and double-residue substitutions, residue removal, and the addition of non-ionic PEG and charged poly-arginine tags (Ri, where i represents the number of arginine). Results of this optimization are shown in FIG. 4B, which plots IP versus the affinity of the compound to MrkA, relative to cy(LLFFF) (SEQ ID NO:5).
PCC compounds were purified on a Waters Autopurification system, which isolated compounds based on MS peaks corresponding to protonated [M+1H]^+ and [M+2H]^2+, and/or sodium adducts [M+Na]^+ and [M+2Na]^2+. The isocratic points of PCCs were determined based on the elution of the compound from a C18 prep-scale column. Synthetic epitopes were either purified on the Waters Autopurification System, or by semi-preparative HPLC and then using matrix-assisted laser desorption/ionization mass spectroscopy to identify fractions with the desired m/z ratio. The resulting peptides were lyophilized, the yield determined by mass difference or UV-visible absorbance, and resuspended at a concentration of up to 10 mM peptide in DMSO. Peptides were stored at −80° C. before thawing for each use.

[6] = target: T1, full-length recombinant MrkA protein (Klebsiella pneumoniae, UniProt P12267); assay: Sandwich ELISA of PCC binding to full-length MrkA
T1 construct: purchased MyBiosource MBS1248970
T1 sequence (P12267 23-202): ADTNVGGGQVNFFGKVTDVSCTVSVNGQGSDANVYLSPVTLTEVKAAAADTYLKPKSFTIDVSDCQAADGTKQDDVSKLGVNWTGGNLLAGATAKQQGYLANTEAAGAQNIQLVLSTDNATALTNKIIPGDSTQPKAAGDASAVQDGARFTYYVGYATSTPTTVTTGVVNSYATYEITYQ
Experimental: The screen yielded 26 hits (Table 2) that were sequenced, scaled up, and tested for binding to full-length recombinant MrkA in solution by single-point sandwich Enzyme-linked immunoassays (ELISAs) (FIG. 8). HPraGly is present before X1 in each peptide and Az4 follows X5 in each peptide.
An alanine scan was performed to establish which residues of cy(LLFFF) (SEQ ID NO:5) contribute most to MrkA binding. In this assay, a sandwich ELISA is used to quantify the affinity of several cy(LLFFF) (SEQ ID NO:5) analogues, in which one residue is substituted with an alanine, towards full-length MrkA protein. The ELISA results in FIG. 4 show lower signal for every alanine-substituted cy(LLFFF) (SEQ ID NO:5) analogue compared to unmodified cy(LLFFF) (SEQ ID NO:5), establishing that the native compound has the highest affinity. […] Thus, these two C-terminal phenylalanine residues (FIG. 3A, arrows in inset) play critical roles in MrkA binding, and are targets for modifications to improve binding. Another important detail of these alanine scan results is a strong dependence of MrkA binding on the residue position, independent of residue type. For example, cy(LLAFF) (SEQ ID NO:9) and cy(LLFFA) (SEQ ID NO:11) have very different binding affinities, despite having the same phenylalanine-to-alanine substitution.
In vitro ELISA assays. ELISA assays for MrkA-binding and epitope selectivity were performed on clear NeutrAvidin Coated High Capacity Plates (ThermoFisher, 15507). The buffer used for all washes and to dissolve all compounds was TBST+0.1% BSA (TBS+0.05% Tween 20+0.1% BSA, pH 7.3) and, unless otherwise stated, steps were conducted at room temperature. Each wash involved a brief 20 s agitation, and all conjugation, blocking, and incubation steps were performed with gentle agitation over the entire stated time period. The general procedure for an ELISA assay was: wash 3×200 μL/well, conjugate with 2 μM of biotinylated compound for 2 h at room temperature (100 μL/well), wash 3×200 μL/well, blocked overnight in 5 wt % milk at 4° C., wash […] with wash buffer, incubate with titrated compound (e.g., MrkA or epitope) for 1 h, […], incubate with primary antibody […] for 1 h (100 μL/well), wash 3×200 μL/well, incubate with 1:2,000 anti-rabbit secondary antibody-horseradish peroxidase conjugate (Cell signaling Technologies, 7074S) for 1 h, 3×200 μL/well, develop with the Microwell Peroxidase Substrate System (2-C) (SeraCare, 5120-0047) using 100 μL/well for 1-40 minutes, and quench using 1 M H2SO4 (aq.) at 100 μL/well. For MrkA binding assays, biotinylated PCCs were conjugated to the well surface, recombinant MrkA with an N-terminal 6×His-SUMO-tag (MyBiosource, MBS1248970) was titrated at the desired concentration, and the primary antibody was His-tag antibody, pAb, Rabbit (Genscript, A00174) at a 1:5,000 dilution. For epitope selectivity assays, biotinylated SynEps were conjugated, DNP-conjugated AR-PCCs were titrated at a desired concentration, and the primary antibody was anti-DNP antibody produced in Rabbit (Sigma-Aldrich, D9656) at a 1:8,000 dilution. […] For binding tests in the context of mouse sera, the “titrated compound” described in the steps above was dispersed in a solution containing the desired concentration of mouse serum.

[7] = system: live or heat-killed MRSA cells; assay: ELISA of PCC-driven SAv-HRP recruitment to MRSA cells; assay type: cell-based, Staphylococcus aureus; conditions: without or with 0.4 micrograms/mL tunicamycin
Experimental: FIG. 16A-16B are graphs showing PCC-driven recruitment of streptavidin-horseradish peroxidase (SAv-HRP) conjugate to live MRSA cells (FIG. 16A) or heat-killed MRSA cells (FIG. 16B) cultured under different antibiotic conditions via enzyme-linked Immunosorbent Assays (ELISAs). All tests were conducted by coating the antigen (MRSA cells) onto the wells of 96-well plates and then exposing the wells solutions containing biotinylated PCCs, then SAv-HRP, then HRP substrate followed by detection via absorbance at 450 nm. Absorbance values greater than the “no PCC” background indicate that several PCCs recruit SAv-HRP to either live cells (FIG. 16A) or heat-killed cells (FIG. 16B) cultured either without antibiotic (“−tunicamycin”, first three bars in each set) or with 0.4 micrograms/mL of tunicamycin (“+tunicamycin”, last three bars in each set), which reduces the expression of wall teichoic aids by MRSA. All measurements were conducted in triplicate and error bars reflect standard deviations. […]
The recruitment ability of selected PCCs was assessed by PCC-driven recruitment of streptavidin-horseradish peroxidase (SAv-HRP) conjugate to live MRSA cells (FIG. 16A) or heat-killed MRSA cells (FIG. 16B) cultured under different antibiotic conditions via enzyme-linked Immunosorbent Assays (ELISAs). […]

With “cy(HNGPT)-DNP: control AR-PCC, DNP-conjugated dummy ligand ([Lys(N3)]HNGPT[Pra]; triazole 1-7; also: DNP-conjugated) [reference compound]” as the substance, how does the “450 nm absorbance, anti-DNP recruitment to cells” value [1] read?
The value was “Much smaller signals”.

And the “fluorescence intensity of cells (predominantly)” value ([2]; AR-PCC at 50 μM plus Alexafluor 488 anti-DNP, strain BAA 2146)?
Its value is < 1.0×10^1.

What does the source list for “cy(HNGPT): non-MrkA-binding dummy ligand ([Lys(N3)]HNGPT[Pra]; triazole 1-7) [reference compound]”?
CFU at 6 hrs, DNP-conjugated EPI and anti-DNP antibody [3]: did not promote any phagocytosis; cell counts at 6 hrs, DNP-conjugated EPI without antibody [3]: ~35,000; fluorescence of cells (opsonization by anti-DNP) ([2]; cy(LLFFF)-DNP 1 or 5 μM, cy(HNGPT) control 50 μM, plus fluorescent anti-DNP): Slightly greater fluorescence; whole-cell ELISA signal, K. pneumoniae BAA 1705 and BAA 2146 [4]: comparably lower signal; also recorded: no or minimal binding above baseline

Which “reduction / improvement in IP versus cy(LLFFF)” value [5] does the source give for cy(LLFFF)+R6 here?
Its value is about 35%.

And the “isocratic point (IP)” value ([5]; elution from C18 prep-scale column)?
The value was about 40%.

And the “binding of MrkA protein in mouse sera” value ([6]; MrkA protein at 250 nM in 10 and 100% mouse sera)?
Its value is “binds MrkA protein in the context of sera; also recorded: bound MrkA protein in solutions of 10 and 100% mouse sera, albeit at lower levels versus 0% serum”.

And the “stronger affinity to MrkA over cy(LLFFF)” value ([6]; ratio of ELISA signals to cy(LLFFF) reference on same plate)?
The value was 22%.

What about the “whole-cell ELISA signal, K. pneumoniae BAA 1705 and BAA 2146” value [4] of the same substance?
Its value is “similarly high selectivity towards MrkA-expressing cells”.

For “cy(akkrp) ([Lys(N3)][dA][dK][dK][dR][dP]X; bridge 1-7; not fully specified (residue 7, bridges); printed as cy(akkrp))”, which “SAv-HRP recruitment to MRSA cells” value [7] is on record?
The value was “Standout recruiting peptides”.

With “cy(kpdew): PCC to MRSA peptidoglycan, D-amino acids ([Lys(N3)][dK][dP][dD][dE][dW]X; bridge 1-7; not fully specified (residue 7, bridges); printed as cy(kpdew))” as the substance, how does the “SAv-HRP recruitment to MRSA cells” value [7] read?
Its value is “Standout recruiting peptides”.
